Active and inactive are the calls of the source. No cut-off for these calls is given here.
What was measured:
[1] = tested on: HCT-116; assay: Cytotoxicity against human HCT116 cells assessed as inhibition of cell growth at 10 and 30 uM preincubated for 3 hrs followed irradiation at 400 - 430 nm for 1, 3 and 10 min measured after 48 hrs by CellTiter-Glo assay; type: functional, cell-based
[2] = target: T1, Histone deacetylase (Homo sapiens) (UniProt Q13547+O15379+Q9UBN7+Q92769+Q9UQL6+Q8WUI4+Q9BY41+Q96DB2+P56524+Q9UKV0+Q969S8); assay: Inhibition of human HDAC in HeLa cell nuclear extract for 60 mins by HDAC-Glo 1/2 reagent based chemiluminescence analysis; type: cell-free
[3] = Prodrug conversion in tris buffer assessed as suberoyl anilide hydroxamic acid formation at 200 uM followed 400 to 430 nm irradiation for 10 mins by HPLC analysis; type: ADME
[4] = target: T1, Histone deacetylase (Homo sapiens); assay: Inhibition of human HDAC in HeLa cell nuclear extract in presence of irradiation at 400 to 430 nm for 1 to 10 mins incubated for 60 mins by HDAC-Glo 1/2 reagent based chemiluminescence analysis; type: cell-free

- inhibition [2]: inactive
- Drug metabolism [3]: 54 µM
- inhibition [4]: Active
SMILES: CCN(CC)c1ccc2c(CONC(=O)CCCCCCC(=O)Nc3ccccc3)cc(=O)oc2c1
- Activity [1]: Active
